From US10881642B2, “Autophagy enhancer and use thereof” (Industry-Academic Cooperation Foundation, Yonsei University, priority 2016, dated 2021)

How the values were obtained:
HFD-fed hIAPP+ mice = experiment: Metabolic profile and islet amyloid of HFD-fed hIAPP+ mice; assay type: in vivo
Description: (§1) (FIG. 13A) INS-1 cells transfected with non-amyloidogenic prepro-mIAPP-HA or amyloidogenic prepro-hIAPP-HA construct were treated with MSL or MSL-7 followed by western blot analysis using anti-HA antibody. (FIG. 13B) the transfected cells of (FIG. 13A) were treated with MSL-7 in the presence or absence of bafilomycin followed by western blot analysis using anti-HA antibody. (FIG. 13C) The transfected cells were treated with MSL-7 in the presence or absence of 3-MA, after which the amount of […] contained in the cell lysates were measured. (FIG. 13D) HFD-fed hIAPP+ mice were administered with MSL-7, and non-fasting glucose level was monitored. (FIG. 13E) IPGTT. (FIG. 13F) HFD-fed hIAPP+ mice were administered with MSL-7 for 8 weeks and the insulinogenic index was measured. (FIG. 13G) HFD-fed hIAPP+ mice were administered with MSL-7 for 8 weeks and the pancreatic section was obtained. All antibody was used for immunohistochemistry (left). The percentage of A11-[…] cells among DAPI+ cells (right). (FIG. 13H) FSB stained pancreatic section of HFD-fed hIAPP+ mice administered with MSL-7 for 8 weeks (left). Average fluorescence intensity/area (right).
Screening of autophagy enhancer. […] Luciferase assay. Firefly and Renilla luciferase assays were conducted using the Dual-Luciferase Reporter Assay System (Promega) according to the manufacturer's recommendation. In brief, cells were lysed in 1× lysis buffer and subjected to a single round of freezing/thawing. Firefly luciferase was determined after mixing 5 μl of lysate with 25 μl of Luciferase Assay Reagent II. Renilla luciferase was then determined after further addition of 20 ul of Stop&Glo Reagent. Cell culture and media and drugs treatment. HeLa, TFEB-GFP-HeLa, SK-HEP1 (hepatoma cell line) and Hepa1c1c7 (hepatoma cell line) cells were cultured in the following media: (normal) Dulbecco's modified Eagle's medium (DMEM, Sigma-Aldrich) supplemented with 10% FBS and 1% penicillin/streptomycin; (starvation) HBSS media with Ca and Mg supplemented with 10 mM HEPES; Drugs treatment: MSL compound (50-100 μM); Rapamycin ([…]); Torin-1 (1 μM); Bafilomycin (100 nM); Cyclosporin A (10 μM); and FK506 (5 μM). Cells were treated with oleic acid (400 μM) and palmitic acid (400 μM) for 24 h. Where indicated, cells were washed off with HBSS and replaced by DMEM with or without MSL for 16 h. INS-1 cells, a insulinoma cell line of […] were cultured as described previously (Kim et al., 2014 ibid) in the presence or absence of bafilomycin and treated with MSL-7. Lactate dehydrogenase (LDH) assay. Cytotoxicity was determined by the measurement of LDH release in cell culture media using the LDH kit (Roche), according to the protocol from the manufacturer. Transfection and plasmids. Cells were transiently transfected with DNA plasmids 3×FLAG-hTFEB (A Ballabio), FYVE-dsRed (Cantley LC), RFP-LC3 or mRFP-GFP-LC3 using lipofectamine 2000 (Invitrogen) according to the protocol from the manufacturer. […] Imaging and image quantification. […] Formation of acidic vesicular organelles was quantitated by staining the cells with acridine orange (Invitrogen, 5 ug/ml, 10 min). […] Cells or tissues were solubilized in lysis buffer supplemented with protease and phosphatase inhibitors and protein concentration was measured by the Bradford method. Ten to 30 micrograms were loaded on 4-12% Bis-Tris gel (NUPAGE, Invitrogen) or 8-15% SDS-PAGE, transferred to PVDF membranes and analyzed by western blot using the ECL method (Pierce). […]

calcineurin = experiment: Calcineurin phosphatase activity assay; assay type: cell-based; details: lysates of Hepa1c1c7 cells
[1] = system: INS-1 cells transfected with prepro-hIAPP-HA; experiment: pro-hIAPP accumulation and apoptosis in transfected INS-1 cells; assay type: cell-based, mice; details: for accumulation of pro-hIAPP dimers: western blot, anti-HA
Description: as §1
Screening of autophagy enhancer. […] Luciferase assay. […] Firefly luciferase was determined after mixing 5 μl of lysate with 25 μl of Luciferase Assay Reagent II. Renilla luciferase was then determined after further addition of 20 ul of Stop&Glo Reagent. […] Cytotoxicity was determined by the measurement of LDH release in cell culture media using the LDH kit (Roche), according to the protocol from the manufacturer. […] Imaging and image quantification. […] Formation of acidic vesicular organelles was quantitated by staining the cells with acridine orange (Invitrogen, 5 ug/ml, 10 min). […] Cells or tissues were solubilized in lysis buffer supplemented with protease and phosphatase inhibitors and protein concentration was measured by the Bradford method. Ten to 30 micrograms were loaded on 4-12% Bis-Tris gel (NUPAGE, Invitrogen) or 8-15% SDS-PAGE, transferred to PVDF membranes and analyzed by western blot using the ECL method (Pierce). […]

HeLa cells = experiment: GCaMP3-ML1 lysosomal Ca2+ release imaging; assay type: cell-based; details: GPN 200 μM; ionomycin 1 μM
Description: HeLa cells were transfected with perilysosomal GCaMP3-ML1 calcium probe, and Ratiometric image (474 and 410 nm excitation) was obtained.
GCaMP3 Ca2+ Imaging. HeLa cells were grown on 15 mm coverslips and transfected with plasmid encoding the perilysosomal-localized ML1-GCaMP3 calcium probes.

[2] = system: primary peritoneal macrophages; experiment: Mitochondrial ROS (MitoSOX) and potential (MitoTracker) by FACS; assay type: cell-based, C57BL/6 mice; details: PA plus LPS
Hepa1c1c7 cells = experiment: Lipid droplet clearance after PA and OA loading; assay type: cell-based

Row | Structure (SMILES) | non-fasting glucose level (HFD-fed hIAPP+ mice) | FSB-stained pancreatic islet amyloid (HFD-fed hIAPP+ mice; 8-week administration) | accumulation of hIAPP oligomer (A11 antibody) (HFD-fed hIAPP+ mice; 8-week administration) | Glucose intolerance (IPGTT) (HFD-fed hIAPP+ mice; 8 week treatment) | insulinogenic index (HFD-fed hIAPP+ mice; 8 week treatment) | calcineurin activity (calcineurin) | apoptosis of cells transfected with prepro-hIAPP ([1]; in the presence of 3-MA) | accumulation of pro-hIAPP dimers [1] | lysosomal Ca2+ release (HeLa cells) | mitochondrial ROS content (MitoSox) [2] | mitochondrial potential (MitoTracker Red) [2] | lipid content in cells loaded with PA and OA (Hepa1c1c7 cells) | content of lipid droplets stained BODIPY (Hepa1c1c7 cells; PA and OA loaded, 16 h)
1 | COc1oc(-c2ccccc2Cl)nc1S(=O)(=O)c1ccccc1 [MSL-7, 2-(2-chlorophenyl)-5-methoxy-4-(phenylsulfonyl) oxazole] | significantly reduced | similarly reduced | significantly reduced | significantly improved | significantly improved | calcineurin activation in a dose-dependent manner | significantly reduced | reduced |  |  |  |  | 
2 | CSc1oc(-c2ccccc2)nc1S(=O)(=O)c1ccc(F)cc1 [MSL] |  |  |  |  |  | significantly increased |  | reduced | no increase of lysosomal Ca2+ release | significantly reduced | significantly reduced | significantly reduced | significantly decreased
